Source: article PMC5601486, “Identification of 4-phenylquinolin-2(1H)-one as a specific allosteric inhibitor of Akt” (Scientific Reports, 2017)

How the values were obtained:
[1] = test system: PAK6; test: KINOMEscan; settings: 50000 nM
Procedure: KINOMEscan™ selectivity screen
(§5) Briefly, Kinase-tagged T7 phage strains were grown in parallel in an E. coli host derived from the BL21 strain. E. coli were grown to log-phase and infected with T7 phage from a frozen stock and incubated with shaking at 32°C until lysis (90-150 minutes). The kinases were produced in HEK-293 cells and subsequently tagged with DNA for qPCR detection. Streptavidin-coated magnetic beads were treated with biotinylated small molecule ligands to generate affinity resins for kinase
(§6) inhibitor or DMSO control was performed in polypropylene 384-well plates for 1 hr at room temperature. After wash with PBS buffer containing 0.05% Tween 20, the beads were incubated in elution buffer (PBS containing 0.05 % Tween 20 and 0.5 μM non-biotinylated affinity ligand) for 30 minutes at room temperature. The kinase concentration in the eluates was measured by qPCR.

[2] = test system: CSF1R-autoinhibited; test: KINOMEscan; settings: 50000 nM
Procedure: KINOMEscan™ selectivity screen
(§7) The assay was perfor med at DiscoveRx Corporation according the methods published previously5. Briefly, Kinase-tagged T7 phage strains were grown in parallel in an E. coli host derived from the BL21 strain. E. coli were grown to log-phase and infected with T7 phage from a frozen stock and incubated with shaking at 32°C until lysis (90-150 minutes). The kinases were produced in HEK-293 cells and subsequently tagged with DNA for qPCR detection. Streptavidin-coated magnetic beads were treated with biotinylated small molecule ligands to generate affinity resins for kinase
as §6

[3] = test system: GSK-3β phosphorylation; test: Western blot of Akt downstream signaling; assay type: cell-based, Mouse; settings: Neuro 2A cells, dose-dependent
Procedure: (§1) Neuro 2A cells were seeded in 12-well plates in DMEM containing 5% FBS for 24 hr.
(§2) After overnight serum starvation (in 0% FBS DMEM), cells were incubated for 30 min at 37 °C with G7 or LY294002 or Torin 1 (Sigma Aldrich) at various concentrations, or DMSO control. IGF-1 was added to each well at a final concentration of 100 ng/mL. After 30-min incubation cells were washed with cold PBS and lysed with 50 µL lysis buffer containing 1% Triton X-100 and protease/phosphatase inhibitors (Cell Signaling Technology) or RIPA buffer (Santa Cruz Biotech). Samples were electrophoresed in 4–12% Bis-Tris gels (Life Technologies) at 150 V using MOPS SDS running buffer. Proteins were transferred electrophoretically to a PVDF or nitrocellulose membrane. For detection of cleaved […]
(§3) caspase 3 a Trans-Blot Turbo Transfer System (Bio-Rad, 25 V for 25 min) with PVDF membrane were used. […]
(§4) anti- GAPDH (14C10) antibody (#2118) (all antibodies were from Cell Signaling Technology unless indicated, 1:1000 dilution was used) at 4°C overnight, washed three times with TBS-T, then incubated with peroxidase-conjugated secondary antibody (Sigma-Aldrich) for 1 hr at room temperature. […] Band intensity was quantitated using Kodak 1D imaging analysis software. […]

[4] = test system: FoxO1 phosphorylation; test: Western blot of Akt downstream signaling; assay type: cell-based, Mouse; settings: Neuro 2A cells, dose-dependent
Procedure: as §1, §2, §3, §4

[5] = test system: FLT3(D835V); test: KINOMEscan; settings: 50000 nM
Procedure: KINOMEscan™ selectivity screen
as §7, §6

[6] = test system: T1, Akt-PIP3 association; test: PIP3-Akt pull-down assay; assay type: binding; settings: inactive Akt, PIP3 beads
T1 construct: purchased Millipore 14-279
Procedure: according to the method reported previously6. Briefly, the lipids dissolved in methanol/chloroform were mixed at desired proportions and dried with a N2 steam.
The lipid mixture was redissolved in 2 mL cyclohexane containing 75 μM BHT (2,6-di-tert-butyl-p-cresol) and lyophilized under vacuum. Unilamellar vesicles were obtained by reconstituting the dried sample with 1 mL of PBS (pH 7.4) containing 50 μM DTPA (diethylenetriamine pentaacetic acid) followed by extrusion with 0.1 μm polycarbonate membrane (Corning, Inc.). For in vitro phosphorylation of Akt, 1 μL […]
mixture was resolved on SDS gel followed by western blot analysis.
The assay was performed using a protocol published previously7.
(50 ng) in PBS containing 400 ng/mL BSA was incubated with inhibitor G7 or a PI analog (EMD Millipore, #124005) for 2 hr at 4 °C. 25 µL PIP3 beads (Echelon, #P-B345a) was added to the sample and incubated overnight at 4 °C. The beads were washed with washing buffer containing 10 mM HEPES (pH 7.5), 0.25% NP-40 and 150 mM NaCl. Akt was eluted with 2x LDS and measured by immunoblotting.
Chemical cross-linking and mass spectrometry

[7] = test system: ERK5; test: KINOMEscan; settings: 50000 nM
Procedure: KINOMEscan™ selectivity screen
as §5, §6

[8] = test system: ABL1(T315I)-phosphorylated; test: KINOMEscan; settings: 50000 nM
Procedure: KINOMEscan™ selectivity screen
as §7, §6

[9] = test system: TSSK1B; test: KINOMEscan; settings: 50000 nM
Procedure: KINOMEscan™ selectivity screen
(§8) Briefly, Kinase-tagged T7 phage strains were grown in parallel in an E. coli host derived from the BL21 strain. E. coli were grown to log-phase and infected with T7 phage from a frozen stock and incubated with shaking at 32°C until lysis (90-150 minutes). The kinases were produced in HEK-293 cells and subsequently tagged with DNA for qPCR detection.
(§9) After wash with PBS buffer containing 0.05% Tween 20, the beads were incubated in elution buffer (PBS containing 0.05 % Tween 20 and 0.5 μM non-biotinylated affinity ligand) for 30 minutes at room temperature. The kinase concentration in the eluates was measured by qPCR.

[10] = test system: LZK; test: KINOMEscan; settings: 50000 nM
Procedure: KINOMEscan™ selectivity screen
as §5, §6

[11] = test system: TIE2; test: KINOMEscan; settings: 50000 nM
Procedure: KINOMEscan™ selectivity screen
as §7, §6

[12] = test system: PKN2; test: KINOMEscan; settings: 50000 nM
Procedure: KINOMEscan™ selectivity screen
as §7, §6

[13] = test system: TTK; test: KINOMEscan; settings: 50000 nM
Procedure: KINOMEscan™ selectivity screen
as §5, §6

[14] = test system: TLK1; test: KINOMEscan; settings: 50000 nM
Procedure: KINOMEscan™ selectivity screen
as §7, §6

[15] = test system: ABL1(F317L)-phosphorylated; test: KINOMEscan; settings: 50000 nM
Procedure: KINOMEscan™ selectivity screen
as §7, §6

[16] = test system: TAOK2; test: KINOMEscan; settings: 50000 nM
Procedure: KINOMEscan™ selectivity screen
as §8, §9

[17] = test system: PYK2; test: KINOMEscan; settings: 50000 nM
Procedure: KINOMEscan™ selectivity screen
as §8, §9

[18] = test system: FAK; test: KINOMEscan; settings: 50000 nM
Procedure: KINOMEscan™ selectivity screen
as §7, §6

[19] = test system: GRK7; test: KINOMEscan; settings: 50000 nM
Procedure: KINOMEscan™ selectivity screen
The assay was perfor med at DiscoveRx Corporation according the methods published previously5. […] The kinases were produced in HEK-293 cells and subsequently tagged with DNA for qPCR detection. Streptavidin-coated magnetic beads were treated with biotinylated small molecule ligands to generate affinity resins for kinase
as §6

[20] = test system: CDKL5; test: KINOMEscan; settings: 50000 nM
Procedure: KINOMEscan™ selectivity screen
as §5, §6

[21] = test system: CDC2L1; test: KINOMEscan; settings: 50000 nM
Procedure: KINOMEscan™ selectivity screen
as §5, §6

[22] = test system: RIPK2; test: KINOMEscan; settings: 50000 nM
Procedure: KINOMEscan™ selectivity screen
as §7, §6

[23] = test system: NEK3; test: KINOMEscan; settings: 50000 nM
Procedure: KINOMEscan™ selectivity screen
as §7, §6

[24] = test system: MAP4K3; test: KINOMEscan; settings: 50000 nM
Procedure: KINOMEscan™ selectivity screen
as §7, §6

[25] = test system: SGK3; test: KINOMEscan; settings: 50000 nM
Procedure: KINOMEscan™ selectivity screen
as §7, §6

[26] = test system: RSK1(Kin.Dom.2-C-terminal); test: KINOMEscan; settings: 50000 nM
Procedure: KINOMEscan™ selectivity screen
as §7, §6

[27] = test system: MTOR; test: KINOMEscan; settings: 50000 nM
Procedure: KINOMEscan™ selectivity screen
as §7, §6

[28] = test system: DAPK2; test: KINOMEscan; settings: 50000 nM
Procedure: KINOMEscan™ selectivity screen
as §7, §6

Structure (SMILES): Oc1cc(-c2ccccc2)c2ccccc2n1 [G7, 4-phenylquinolin-2(1H)-one]
- Percent Control [1]: 87%
- Percent Control [2]: 16%
- phosphorylation of GSK-3β [3]: decreased
- phosphorylation of FoxO1 [4]: decreased
- Percent Control [5]: 7.6%
- effect on the Akt-PIP3 association [6]: insignificant effect
- Percent Control [7]: 100%
- Percent Control [8]: 64%
- Percent Control [9]: 93%
- Percent Control [10]: 94%
- Percent Control [11]: 100%
- Percent Control [12]: 89%
- Percent Control [13]: 24%
- Percent Control [14]: 59%
- Percent Control [15]: 64%
- Percent Control [16]: 93%
- Percent Control [17]: 93%
- Percent Control [18]: 93%
- Percent Control [19]: 52%
- Percent Control [20]: 100%
- Percent Control [21]: 100%
- Percent Control [22]: 82%
- Percent Control [23]: 68%
- Percent Control [24]: 89%
- Percent Control [25]: 83%
- Percent Control [26]: 39%
- Percent Control [27]: 100%
- Percent Control [28]: 83%
